This note sets out measurements from patent US8318731B2, “Pyrrolopyrimidines” (Janssen Pharmaceutica NV, priority 2007, dated 2012).

In one assay the test system is A2780. In words: Cellular proliferation assay (Alamar blue), A2780. The format is cell-based. To be noted: Homo sapiens, A2780, A2780 cells; 10% FCS; 72 h with compound; Alamar blue 24 h; read-out: pIC50 A2780 (converted). In short, it runs like this:
(§1)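 Cells in 10% FCS (37° C., 5% CO2) were seeded 24 hours before a 72-hour compound exposure. Viable cells were measured by Alamar blue fluorescence (544 nm/590 nm) after dye incubation of 4 h (HCT-116), 6 h (U87-MG) or 24 h (PC3, A2780). Effect is relative to control cells.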
For orientation: Resazurin is reduced to fluorescent resorufin, in cell work by metabolically active cells.

In a further assay the test system is HCT-116. In words: Cellular proliferation assay (Alamar blue), HCT-116. The format is cell-based. The following applies: Homo sapiens; HCT-116 cells; 10% FCS; 72 h with compound; Alamar blue 4 h; read-out: pIC50 HCT-116 (converted). In short, it runs like this: as §1
For a further assay, the system named is U87-MG. Briefly: Cellular proliferation assay (Alamar blue), U87-MG. Format: cell-based. The following applies: Homo sapiens, U-87 MG; U87-MG cells; 10% FCS; 72 h with compound; Alamar blue 6 h; read-out: pIC50 U87MG (converted). In short, it runs like this: as §1
In the next assay the test system is H1299. Briefly: Cellular proliferation assay (Alamar blue), H1299. The following applies: Homo sapiens, NCI-H1299, H1299 cells; 10% FCS; 72 h with compound; Alamar blue 4 h; read-out: pIC50 H1299 (converted). The format is cell-based. In short, it runs like this:
(§2)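 Viable cell number is determined by Alamar blue conversion after cells are treated with compound for 72 hours, following 24 hours of growth without compound in 10% FCS. The effect is calculated against control cells.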

Another assay deals with MDA-MB-231. In words: Cellular proliferation assay (Alamar blue), MDA-MB-231. The format is cell-based. The following applies: Homo sapiens, MDA-MB-231, MDA-MB-231 cells; 10% FCS; 72 h with compound; Alamar blue 24 h; read-out: pIC50 MDA/MB231 (converted). In short, it runs like this: as §2
For another assay, the system named is PC3. In words: Cellular proliferation assay (Alamar blue), PC3. To be noted: Homo sapiens, PC-3, PC-3 cells; 10% FCS; 72 h with compound; Alamar blue 24 h; read-out: pIC50 PC-3 (converted). Format: cell-based. In short, it runs like this:
as §1

Another assay deals with T1, PLK4 (h) (Homo sapiens, UniProt O00444).
T1 sequence (O00444 1-970): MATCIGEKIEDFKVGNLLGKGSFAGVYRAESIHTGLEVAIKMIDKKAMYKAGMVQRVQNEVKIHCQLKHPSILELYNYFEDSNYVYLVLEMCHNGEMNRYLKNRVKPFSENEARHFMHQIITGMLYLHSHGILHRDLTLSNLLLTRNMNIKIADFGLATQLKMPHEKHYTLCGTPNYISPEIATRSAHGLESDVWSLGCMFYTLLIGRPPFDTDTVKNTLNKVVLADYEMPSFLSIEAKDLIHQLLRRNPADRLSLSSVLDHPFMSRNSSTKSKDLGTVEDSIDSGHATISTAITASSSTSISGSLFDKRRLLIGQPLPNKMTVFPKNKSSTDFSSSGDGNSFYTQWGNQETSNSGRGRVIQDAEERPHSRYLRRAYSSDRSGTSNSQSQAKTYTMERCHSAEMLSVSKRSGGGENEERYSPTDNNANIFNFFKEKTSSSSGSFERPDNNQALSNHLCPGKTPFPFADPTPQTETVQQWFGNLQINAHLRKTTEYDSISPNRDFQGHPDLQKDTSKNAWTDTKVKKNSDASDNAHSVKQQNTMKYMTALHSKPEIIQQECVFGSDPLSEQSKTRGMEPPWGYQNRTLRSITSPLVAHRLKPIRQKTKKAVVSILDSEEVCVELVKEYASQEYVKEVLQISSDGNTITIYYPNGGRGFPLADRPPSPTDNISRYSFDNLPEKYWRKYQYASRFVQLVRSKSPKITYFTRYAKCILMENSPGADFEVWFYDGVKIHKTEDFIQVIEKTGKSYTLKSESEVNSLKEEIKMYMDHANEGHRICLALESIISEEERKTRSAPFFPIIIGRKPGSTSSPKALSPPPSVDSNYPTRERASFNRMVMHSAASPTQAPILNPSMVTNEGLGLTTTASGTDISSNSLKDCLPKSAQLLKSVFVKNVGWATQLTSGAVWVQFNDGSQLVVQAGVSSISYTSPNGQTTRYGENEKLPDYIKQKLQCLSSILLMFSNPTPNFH
Briefly: PLK-4 human kinase scintillation proximity assay (SPA). Format: biochemical. The following applies: 1 μM ATP, 60 minutes at r.t., read-out: PLK4 pIC50 (converted). In short, it runs like this:
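Human PLK4 (19 μg/ml) reacted with 10 μM biotinylated peptide, 1 μM ATP plus 2 nM [γ-33P]ATP in HEPES pH 8.0 with MgCl2, NaCl, NaF and DTT for 60 min at r.t. After an EDTA stop, phosphorylated substrate was captured on streptavidin PVT SPA beads and scintillation imaged.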

For `O=C1CCCCOc2cc(cc(C(F)(F)F)c2)Nc2ncnc3[nH]cc(c23)CN2CCN1CC2` [Compound 113], the IC50 in the assay on A2780, with HCT-116, with U87-MG, in the assay with H1299, in the assay with MDA-MB-231 and with PC3 was over 10000 nM each time. Also, the IC50 at PLK4 (h) is over 10000 nM.

Consider `CN1CCCN(C)C(=O)COc2cc(ccc2NC(=O)Nc2ccc(Cl)cc2)Nc2ncnc3[nH]cc(c23)C1` [Compound 116], for which the IC50 with A2780 is 79.4 nM; in the assay with HCT-116, 200 nM; in the assay with U87-MG it was 3980 nM; with H1299 it was 631 nM; with MDA-MB-231, 5010 nM; in the assay with PC3, 6310 nM. Besides, the IC50 at PLK4 (h) was 31.6 nM.

`CN1CCCN(C)C(=O)COc2cc(ccc2OCC(=O)NC2CCCCC2)Nc2ncnc3[nH]cc(c23)C1` [Compound 118]: the IC50 in the assay on A2780 was 398 nM; in the assay with HCT-116, 631 nM; with U87-MG it was 3160 nM; with H1299, 1580 nM; with MDA-MB-231 it was 6310 nM; in the assay on PC3, 6310 nM. The IC50 at PLK4 (h) is 25.1 nM.

With `COCCOc1ccc2cc1OCC(=O)N(C)CCCN(C)Cc1c[nH]c3ncnc(c13)N2` [Compound 119], the IC50 in the assay on A2780 was 316 nM; in the assay on HCT-116 it was 316 nM; in the assay with U87-MG, 1580 nM; in the assay on H1299 it was 1000 nM; with MDA-MB-231, 2000 nM; with PC3 it was 2510 nM. Besides, on PLK4 (h), the IC50 was 25.1 nM.

`CN1CCCN(C)C(=O)COc2cccc(c2)Nc2ncnc3[nH]cc(c23)C1` [Compound 120]: the IC50 in the assay with A2780 is 501 nM; in the assay on HCT-116, 398 nM; with U87-MG, 794 nM; in the assay on H1299 it was 1000 nM; in the assay with MDA-MB-231, 1000 nM; with PC3, 1000 nM. For the same molecule, at PLK4 (h), the IC50 is 31.6 nM.

As for `O=C1CCCCOc2cc(ccc2N2CCOCC2)Nc2ncnc3[nH]cc(c23)CN2CCN1CC2` [Compound 121], the IC50 with A2780, with HCT-116, with U87-MG, in the assay on H1299, in the assay with MDA-MB-231 and in the assay with PC3 was over 10000 nM throughout. At PLK4 (h), the IC50 was 6310 nM.

Regarding `CC(C)NC(=O)Nc1ccc2cc1OCC(=O)N(C)CCCN(C)Cc1c[nH]c3ncnc(c13)N2` [Compound 122], the IC50 is 3980 nM in the assay with A2780; 6310 nM in the assay with HCT-116; over 10000 nM in the assay with U87-MG; 7940 nM in the assay with H1299; over 10000 nM in the assay on MDA-MB-231; over 10000 nM in the assay on PC3. Besides, the IC50 on PLK4 (h) was 200 nM.

As to `COc1cc2cc(c1OC)CN(C(C)C)CC(=O)N(C)CCCc1c[nH]c3ncnc(c13)N2` [Compound 123], the IC50 in the assay on A2780, with HCT-116, in the assay on U87-MG, in the assay with H1299, in the assay on MDA-MB-231 and with PC3 was over 10000 nM each time. At PLK4 (h), the IC50 is over 10000 nM.

With `COCCN1CC(=O)N(C)CCCc2c[nH]c3ncnc(c23)Nc2cc(c(OC)c(OC)c2)C1` [Compound 124], the IC50 in the assay on A2780, in the assay on HCT-116, in the assay on U87-MG, with H1299, in the assay with MDA-MB-231 and with PC3 was over 10000 nM throughout. For the same molecule, on PLK4 (h), the IC50 was over 10000 nM.

`CN1CCCN(C)C(=O)COc2cc(ccc2OCC(=O)NC2CC2)Nc2ncnc3[nH]cc(c23)C1` [Compound 125]: the IC50 in the assay on A2780 was 1260 nM; in the assay on HCT-116, 5010 nM; in the assay on U87-MG, over 10000 nM; with H1299 it was 6310 nM; with MDA-MB-231 it was over 10000 nM; with PC3, over 10000 nM. On PLK4 (h), the IC50 was 25.1 nM.

Turning to `CN1CCCN(C)C(=O)COc2cc(ccc2OCCN2CCOCC2)Nc2ncnc3[nH]cc(c23)C1` [Compound 126], the IC50 in the assay with A2780 is 2000 nM; in the assay on HCT-116, 3980 nM; with U87-MG, 6310 nM; in the assay with H1299, 7940 nM; in the assay with MDA-MB-231, 10000 nM; in the assay on PC3 it was 7940 nM. The IC50 on PLK4 (h) is 501 nM.

In the case of `CN1CCCN(C)C(=O)COc2cc(ccc2NC(=O)NCC2CC2)Nc2ncnc3[nH]cc(c23)C1` [Compound 127], the IC50 in the assay on A2780 was 5010 nM; in the assay with HCT-116 it was over 10000 nM; in the assay on U87-MG, over 10000 nM; with H1299, over 10000 nM; in the assay on MDA-MB-231, over 10000 nM; with PC3, over 10000 nM. In addition, the IC50 at PLK4 (h) is 50.1 nM.

As to `COCCOCCOc1ccc2cc1OCC(=O)N(C)CCCN(C)Cc1c[nH]c3ncnc(c13)N2` [Compound 128], the IC50 in the assay on A2780 was 398 nM; in the assay on HCT-116, 501 nM; with U87-MG, 2510 nM; with H1299 it was 1000 nM; in the assay with MDA-MB-231 it was 5010 nM; in the assay with PC3, 6310 nM. Also, on PLK4 (h), the IC50 was 25.1 nM.

Consider `COc1ccc(NC(=O)COc2ccc3cc2OCC(=O)N(C)CCCN(C)Cc2c[nH]c4ncnc(c24)N3)cc1` [Compound 129], for which the IC50 with A2780 was 63.1 nM; with HCT-116 it was 79.4 nM; in the assay with U87-MG, 794 nM; in the assay with H1299 it was 200 nM; in the assay with MDA-MB-231, 1260 nM; in the assay on PC3 it was 1000 nM. The IC50 on PLK4 (h) is 50.1 nM.

For the molecule `CCOCCCOc1ccc2cc1OCC(=O)N(C)CCCN(C)Cc1c[nH]c3ncnc(c13)N2` [Compound 130], the IC50 was 501 nM in the assay with A2780; 631 nM in the assay with HCT-116; 2000 nM with U87-MG; 1580 nM in the assay with H1299; 3160 nM in the assay on MDA-MB-231; 5010 nM with PC3. Besides, the IC50 at PLK4 (h) was 39.8 nM.

Consider `CC(C)OCCOc1ccc2cc1OCC(=O)N(C)CCCN(C)Cc1c[nH]c3ncnc(c13)N2` [Compound 131], for which the IC50 was 50.1 nM with A2780; 63.1 nM in the assay with HCT-116; 2000 nM in the assay with U87-MG; 100 nM in the assay on H1299; 3160 nM in the assay with MDA-MB-231; 7940 nM in the assay on PC3. Besides, the IC50 at PLK4 (h) is 50.1 nM.

`COCCCOc1ccc2cc1OCC(=O)N(C)CCCN(C)Cc1c[nH]c3ncnc(c13)N2` [Compound 132]: the IC50 in the assay with A2780 was 1260 nM; in the assay on HCT-116, 1580 nM; with U87-MG it was 2000 nM; in the assay on H1299, 3980 nM; in the assay on MDA-MB-231, 3980 nM; with PC3, 3980 nM. Moreover, the IC50 on PLK4 (h) is 79.4 nM.

In the case of `CN1CCCCN(C)C(=O)COc2cc(ccc2OCC(=O)Nc2ccc(Cl)cc2)Nc2ncnc3[nH]cc(c23)C1` [Compound 133], the IC50 in the assay with A2780 was 63.1 nM; in the assay with HCT-116, 79.4 nM; with U87-MG it was 2510 nM; with H1299, 200 nM; in the assay on MDA-MB-231, 3160 nM; with PC3, 2510 nM. The IC50 at PLK4 (h) was 63.1 nM.

In the case of `CN1CCCN(C)C(=O)COc2cc(ccc2OCCOc2ccc(Cl)cc2)Nc2ncnc3[nH]cc(c23)C1` [Compound 134], the IC50 is 39.8 nM in the assay with A2780; 126 nM in the assay with HCT-116; 3160 nM with U87-MG; 398 nM in the assay with H1299; 5010 nM with MDA-MB-231; 6310 nM in the assay with PC3. Moreover, on PLK4 (h), the IC50 was 79.4 nM.
